Measurements taken from US11406707B2, “STAT3 phosphorylation during graft-versus-host disease” (H. LEE MOFFITT CANCER CENTER AND RESEARCH INSTITUTE, INC., priority 2014, dated 2022).

Legend:
TH17 responses = conditions: neutralization of IL-6, literature; cited from earlier work
[1] = literature; cited from earlier work
primed T-cells = assay: Secondary alloMLR (3-day restimulation of primed T-cells) proliferation; type: cell-based, human; conditions: Homo sapiens, T-cell; rapamycin 10 ng/ml; read-out: inhibition of proliferation in comparison to DMSO
Text: Bulk donor T-cells were allostimulated with cytokine-matured, allogeneic moDCs at a DC:T-cell ratio of 1:30 as previously described (Florida Blood Services) [Betts, B C, et al. (2011) Blood 118:5330-9; Betts, B C, et al. […] Betts, B C, et al. (2011) Blood 118:5340-3]. […] Lower doses of each drug were used in these experiments to mimic expected physiologic concentrations [Siddiquee, K, et al. (2007) Proceedings of the National Academy of Sciences of the United States of America 104:7391-6; Zeiser, R, et al. (2008) Blood 111:453-62], and to better detect potential synergistic activity with the combination of rapamycin and S3I-201. After 5 days of culture at […]-cell proliferation was measured by a colorimetric assay per the manufacturer's instructions (CellTiter 96 Aqueous One Solution Cell Proliferation Assay [MTS]; Promega, Madison, Wis. USA) [Betts, B C, et al. (2011) Blood 118:5330-9; Betts, B C, et al. […] Betts, B C, et al. (2011) Blood 118:5340-3]. Absorbance/optical density (OD) was analyzed at 490 nm. Secondary alloMLR: […] Following priming, the T-cells were then rested and re-cultured with fresh first-party moDCs (DC:T-cell ratio of 1:30). […] After 3 days, T-cell proliferation was measured by a colorimetric assay as described (Promega). T-cells alone and PHA-stimulated T-cells served as negative and positive controls, respectively, for both the primary and secondary alloMLRs.

STAT3 = biological target: T1, STAT3 (Homo sapiens, UniProt P40763); assay: STAT3 phosphorylation in CD4+ T cells of 5 day allo-MLRs without exogenous cytokine; type: cell-based; conditions: CAS 285986-31-4 1 μM, 5 day allo-MLR
T1 construct: endogenous in cells; host or cells: primary human T cells from healthy-donor PBMC, allostimulated by monocyte-derived dendritic cells
Procedure: (§1) No exogenous cytokine was added. DC-allosensitized T cells were harvested on day 5. […] The ratio of CD4^+, pSTAT5^Bright to CD4^+, pSTAT3^+ T cells was calculated by percentage of phosphorylation.

iTregs and Tconvs = assay: iTreg and Tconv expansion from DC-allostimulated naive CD4+ T cells; type: cell-based, human; conditions: CAS 285986-31-4 1 μM
Procedure: To evaluate iTreg development, naive CD4^+ cells were isolated from nylon-wool-eluted T cells by magnetic-bead selection (Miltenyi Biotec), based on the positive expression of CD4 and lack of CD45RO, CD25, or both. In addition, CD127 staining of the naive CD4^+ cells was performed after the purification, to ensure depletion of natural Tregs from the cell product. Negligible amounts of CD127^-, CD25^Bright nTregs were observed after magnetic-bead purification. […] The T cells were harvested and surface stained on day 5 for CD3, -4, -25, and -127, followed by fixation and permeabilization (eBioscience), and then intracellular staining for Foxp3 [Liu, W., et al. (2006) J. Exp. Med. 203, 1701-1711; […]., et al. (2006) J. Exp. Med. 203, 1693-1700]. Tregs were characterized by gating on the live cells expressing surface CD3^+, CD4^+, and absence of CD127, followed by expression of Foxp3 and CD25^bright [Liu, W., et al. (2006) J. Exp. Med. 203, 1701-1711; […]., et al. (2006) J. Exp. Med. 203, 1693-1700]. The absolute number of iTregs and Tconv (CD4^+ CD25^-) cells was obtained by timed acquisition. The ratio of iTreg:Tconv was calculated based on the absolute number of each T-cell population.

STAT5 = STAT5 phosphorylation in CD4+ T cells of 5 day allo-MLRs without exogenous cytokine; type: cell-based, human; conditions: CAS 285986-31-4 1 μM
Procedure: as §1

[2] = tested on: DC-allosensitized T-cell proliferation; assay: allo-MLR T-cell proliferation (colorimetric MTS assay, stimulation index); type: cell-based, human; conditions: CAS 285986-31-4 titration 0-100 μM, day 4
Procedure: Allo-MLRs consisted of T cells stimulated by cytokine-mature moDCs (DC:T-cell ratio 1:30, 1×10^5 T cells per 100 μl medium in a 96-well plate, 37° C.). […] The allogeneic moDC stimulators were matured with a cytokine cocktail and terminally differentiated, eliminating the need for irradiation [Betts, B. C., et al. (2011) Blood 118, 5330-5339]. T-cell proliferation was quantified by a colorimetric assay (CellTiter 96 AQueous One Solution Cell Proliferation Assay [MTS]; Promega, Madison, Wis.) on day 5, per the manufacturer's instructions, with absorbance quantified at 490 nm [Betts, B. C., et al. (2011) Blood 118, 5330-5339]. The stimulation index was calculated by dividing the OD of the allo-MLR by the OD of T cells alone. PHA-stimulated T cells served as a positive control. Identical allo-MLRs were cultured with CAS 285986-31-4, to determine the dose-response effect of STAT5 inhibition on allostimulated T-cell growth. For these initial experiments, the cultures were analyzed on day 4 because of the early rapid T-cell proliferation among the STAT5 inhibitor-treated wells. The stimulation index was determined as described.

Foxp3 TSDR = assay: iTreg Foxp3 demethylation assay; type: cell-based, human; conditions: CAS 285986-31-4 1 μM
Text: iTreg Foxp3 demethylation assay. […] (2013) J. Immunol. 190, 3180-3188; Miyao, T., et al. (2012) Immunity 36, 262-275]. The degree of Foxp3 TSDR demethylation among iTregs from DMSO-treated allo-MLRs, purified nTregs, and Tconvs served as the controls [[…]., et al. (2013) Blood 122(13):2251-61]. For these experiments, iTregs and nTregs were sorted to select the CD4^+ CD25^+ CD127^- population. PCR products were amplified by using methylation or demethylation specific TSDR forward and reverse primers from bisulphate-treated genomic DNA of sorted natural Tregs. DNA fragments were cloned into a pCR2.1-Topo vector (Life Technologies, Grand Island, N.Y., USA) and verified by DNA sequencing. The following TSDR primers and probes were used for PCR: methylation forward [NT] ID NO:1), reverse [NT] ID NO:2), and hydrolysis probe [NT] (SEQ ID NO:3); and demethylation forward [NT] ID NO:4), reverse [NT] ID NO:5), and hydrolysis probe [NT] ID NO:6). Standards were diluted at concentrations ranging from 2^7 to 2^3 plasmid copies of each methylation or demethylation TSDR. Genomic DNA was isolated by using the DNeasy Blood and Tissue kit (Qiagen, Valencia, Calif., USA) from sorted natural or expanded iTregs. Genomic DNA (200-500 ng) was treated with bisulfite from the EZ DNA Methylation-Gold Kit (Zymo Research, Irvine, Calif., USA). […]

T cells = assay: T-cell viability by Live/Dead staining in treated allo-MLRs; type: cell-based, human; conditions: CAS 285986-31-4 1 μM
Procedure: Fluorochrome-conjugated mouse anti-human mAbs included anti-CD3, -CD4, -CD8, -CD25, -CD45RO, -CD107a, -CD127, -Foxp3, -pSTAT3/pY705, -pSTAT5/pY694, -IFN-, and -IL-17A (BD Biosciences, San Jose, Calif. USA; eBioscience; San Diego, Calif., USA; Invitrogen; Carlsbad, Calif., USA). Viability was assessed by Live/Dead staining (Invitrogen). Live events were acquired on FACSCalibur or LSRII (BD Biosciences) flow cytometers (FlowJo software, ver. 7.6.4; TreeStar, Ashland, Oreg., USA). Gates were defined by appropriate isotype controls. Naive T-cell sorting was performed on the FACSVantageDiVa (BD Biosciences). Where indicated, CD4^+ T cells were purified by magnetic-bead negative selection (Miltenyi Biotec, Auburn, Calif., USA).

T1 sequence (P40763 whole entry): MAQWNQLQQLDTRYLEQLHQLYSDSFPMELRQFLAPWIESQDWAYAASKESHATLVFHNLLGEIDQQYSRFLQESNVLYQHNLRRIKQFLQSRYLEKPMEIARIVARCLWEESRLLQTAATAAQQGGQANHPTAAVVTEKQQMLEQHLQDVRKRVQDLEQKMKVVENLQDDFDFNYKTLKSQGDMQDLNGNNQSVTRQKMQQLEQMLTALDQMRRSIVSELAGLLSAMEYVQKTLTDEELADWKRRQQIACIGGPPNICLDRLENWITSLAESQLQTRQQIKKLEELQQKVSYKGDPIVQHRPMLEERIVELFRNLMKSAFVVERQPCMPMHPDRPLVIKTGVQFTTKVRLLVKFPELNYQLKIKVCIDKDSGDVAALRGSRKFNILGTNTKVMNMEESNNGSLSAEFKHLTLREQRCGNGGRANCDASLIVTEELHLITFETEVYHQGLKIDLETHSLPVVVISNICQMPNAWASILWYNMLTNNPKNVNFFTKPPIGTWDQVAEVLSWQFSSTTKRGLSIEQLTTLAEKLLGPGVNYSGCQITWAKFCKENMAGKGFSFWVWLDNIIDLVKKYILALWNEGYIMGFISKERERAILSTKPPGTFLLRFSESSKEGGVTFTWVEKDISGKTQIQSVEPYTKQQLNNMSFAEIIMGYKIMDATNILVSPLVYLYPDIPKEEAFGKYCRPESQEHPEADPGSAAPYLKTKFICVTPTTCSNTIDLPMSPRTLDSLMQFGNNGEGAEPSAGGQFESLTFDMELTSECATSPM

For “tocilizumab: humanised IL-6 receptor-inhibiting monoclonal antibody”, the “reducing TH17 responses or enhancing Treg development” value (TH17 responses) is given as “insufficient”.
For “ustekinumab: monoclonal antibody targeting the p40-cytokines”, the “efficacy in refractory GVHD” value [1] is given as “demonstrated efficacy”.
`CO[C@H]1C[C@@H]2CC[C@@H](C)[C@@](O)(O2)C(=O)C(=O)N2CCCC[C@H]2C(=O)O[C@H]([C@H](C)C[C@@H]2CC[C@@H](O)[C@H](OC)C2)CC(=O)[C@H](C)/C=C(\C)[C@@H](O)[C@@H](OC)C(=O)[C@H](C)C[C@H](C)/C=C/C=C/C=C/1C` [rapamycin] showed an inhibition at 0.01 µg/mL (primed T-cells) of 69%.
In the case of `O=C(N/N=C/c1coc2ccccc2c1=O)c1cccnc1` [CAS 285986-31-4], the STAT3 signaling (STAT3) is reported as “maintained intact”, the “allostimulated iTreg expansion” value (iTregs and Tconvs) is reported as “significantly decreased” and the “iTreg:Tconv ratio compared with DMSO or STAT3 inhibitor” value (iTregs and Tconvs) is reported as “significant reduction”. The “ratio of CD4+, pSTAT5Bright to CD4+, pSTAT3+ T cells” value (STAT5) was “significantly decreased”, the “CD4+, pSTAT5Bright population” value (STAT5; 5 day allo-MLR) was “selectively impaired” and the “overall geometric MFI of CD4+ STAT5 phosphorylation” value (STAT5; 5 day allo-MLR) was “did not affect”. The “concentration achieving maximum allostimulated T-cell growth” value [2] was 1 µM, the “iTreg Foxp3 demethylation” value (Foxp3 TSDR) was “significant reduction” and the “toxic effects by viability staining” value (T cells) was “no toxic effects”.
